± gives the standard deviation of the reports.
Compound: *OC(C)COC(=O)/C=C/C(*)=O (repeat unit)
- glass transition temperature: -14.00 °C

Compound: *CC(*)(C)C(=O)OCCCCCCOc1ccc(/N=N/c2ccc(OC)cc2)cc1 (repeat unit)
- glass transition temperature: 91.00 °C

Compound: */C=C/C1CC(*)C(C(=O)OC(C)(C)C)C1C(=O)OC(C)(C)C (repeat unit)
- glass transition temperature: 83.40 °C

Compound: *CCCCCCCCNC(=O)CCCCCCCCCCCCCCCCC(=O)N* (repeat unit)
- glass transition temperature: 36.00 °C

Compound: *CCCCCCCCC(c1ccc(O)cc1)C(*)c1ccc(O)cc1C (repeat unit)
- glass transition temperature: -12.00 °C

Compound: *c1ccc(S(=O)(=O)c2ccc(Oc3ccc(-c4nn(*)c(=O)c5ccccc45)c(F)c3)cc2)cc1 (repeat unit)
- glass transition temperature: 283.00 °C

Compound: *Oc1ccc(S(=O)(=O)c2ccc(Oc3ccc(/N=C/c4ccc(*)cc4)cc3)cc2)cc1 (repeat unit)
- glass transition temperature: 110.00 °C

Compound: *c1cccc(P(=O)(c2ccc(C(F)(F)F)cc2)c2cccc(-n3c(=O)c4cc5c(=O)n(*)c(=O)c5c(-c5ccccc5)c4c3=O)c2)c1 (repeat unit)
- glass transition temperature: 311.00 °C

Compound: *CCOC(=O)Nc1ccc(Cc2ccc(NC(=O)OCCOc3ccc(C4(c5ccc(O*)cc5)c5ccccc5-c5ccccc54)cc3)cc2)cc1 (repeat unit)
- glass transition temperature: 152.00 °C

Compound: *Oc1ccc(CC(NC(=O)CCc2ccc(OC(=O)COCCOCC(*)=O)cc2)C(=O)OCCOCCOCC)cc1 (repeat unit)
- glass transition temperature: 18.00 °C

Compound: *CC(CCCCCCCCCC)C(CCCCCCCCCC)COC(=O)c1ccc(C(=O)O*)cc1 (repeat unit)
- glass transition temperature: -38.00 °C

Compound: *CCC[Si](*)(c1cccc2ccccc12)C1CCCCC1 (repeat unit)
- glass transition temperature: 47.50 °C

Compound: *c1ccc2c(c1)C(CCCCCC)(CCCCCC)c1cc(-c3ccc4c(c3)c3cc(*)ccc3n4-c3ccc(OC)cc3)ccc1-2 (repeat unit)
- glass transition temperature: 174.00 °C

Compound: *CC(*)(C)C(=O)OCCCl (repeat unit) [Poly(2-chloroethyl methacrylate) ]
- glass transition temperature: 90 ± 16 °C

Compound: *c1ccc(S(=O)(=O)c2ccc(-n3nccc3-c3ccc(-c4ccnn4*)cc3)cc2)cc1 (repeat unit)
- glass transition temperature: 266.00 °C

Compound: *Oc1ccc(C(C)(C)c2ccc(OC(=O)c3ccc([Si](C)(C)c4ccc(C(*)=O)cc4)cc3)cc2)cc1 (repeat unit)
- glass transition temperature: 180.00 °C

Compound: *CC(*)c1ccc(Br)cc1 (repeat unit) [Poly(4-bromostyrene)]
- glass transition temperature: 140.4 ± 5.4 °C

Compound: */C(Cl)=C(/*)c1ccccc1 (repeat unit)
- glass transition temperature: 215.00 °C

Compound: *CCOc1ccc(C(=O)Nc2cc(NC(=O)c3ccc(O*)cc3)cc(-c3nc4ccccc4[nH]3)c2)cc1 (repeat unit)
- glass transition temperature: 275.00 °C

Compound: *CCCCCCN(CC(F)(F)C(F)(F)C(F)(F)C(F)(F)C(F)(F)C(F)(F)C(F)(F)F)C(=O)CCCCC(=O)N(*)CC(F)(F)C(F)(F)C(F)(F)C(F)(F)C(F)(F)C(F)(F)C(F)(F)F (repeat unit)
- glass transition temperature: 119.40 °C

Compound: *Cc1ccc(CNC(=O)CCCCCCCCCCCCCCCCC(=O)N*)cc1 (repeat unit)
- glass transition temperature: 75.00 °C

Compound: *c1ccc2c(c1)C(=O)N(c1ccc(Sc3ccc(N4C(=O)c5ccc(C(*)(C(F)(F)F)C(F)(F)F)cc5C4=O)cc3)cc1)C2=O (repeat unit)
- glass transition temperature: 301.00 °C

Compound: *OCCCCOC1COC2C(OC(=O)CCCCC(=O)OC3COC4C(*)COC34)COC12 (repeat unit)
- glass transition temperature: 114.00 °C

Compound: *CCCCCC(=O)Oc1ccc(-c2ccc(OC(=O)c3ccc4c(c3)C(=O)N(*)C4=O)cc2)cc1 (repeat unit)
- glass transition temperature: 118.00 °C

Compound: *OC1C(COCO)OC(*)C(O)C1O (repeat unit)
- glass transition temperature: 208.00 °C

Compound: *CC(*)(C)C(=O)OCCCCCCCC/C=C/CCCCCCCC (repeat unit)
- glass transition temperature: -40.00 °C

Compound: *O[Si](*)(C)OCCOCCOCCOCCOCCOCCOCCOCCOC (repeat unit)
- glass transition temperature: -78.00 °C

Compound: *CCCCCCCCOC(=O)c1ccc(-c2ccc(C(=O)O*)cc2)cc1 (repeat unit)
- glass transition temperature: 47.00 °C

Compound: *Oc1ccc(C2(c3ccc(Oc4ccc(C(=O)c5ccccc5-c5ccccc5C(=O)c5ccc(*)cc5)cc4)cc3)c3ccccc3-c3ccccc32)cc1 (repeat unit)
- glass transition temperature: 229.00 °C

Compound: *Oc1ccc(CC(NC(=O)CCc2ccc(OC(=O)CCC(*)=O)cc2)C(=O)OCc2ccccc2)cc1 (repeat unit)
- glass transition temperature: 78.00 °C

Compound: *O[Si](*)(CCCOCCOC)CCCOCCOC (repeat unit)
- glass transition temperature: -55.00 °C

— the PolyMetriX glass transition set
